Patent publication US9157053B1, “Laundry washing machine deodorizer” (priority 2009, dated 2015)

Legend:
[1] = test system: odor-causing biological growth (mold, mildew) in the machine; experiment: early odor-control trials in the TROMM laundry washer, before the standardized procedure; settings: TROMM WM2688WM washer; Example 1: one ounce per load, 2.5 cu ft laundry, warm water
Excerpt: A TROMM Model # WM2688WM laundry washer made by LG Electronics Inc. was purchased. After a few months the odor problem was discovered. […] Applicant started to investigate why a new, expensive washer had this kind of problem. […] These are organic based materials. They provide a growth medium for mold, mildew and other biological growth. The odor is generated by this biofilm. The biofilm returns between each of the treatments.
Since the primary odor was thought to come from mildew, a well known material, 20 MULE TEAM BORAX® detergent was used as a detergent. The boron contained in the detergent is a toxic material that controls mold and fungus. […] The commercially available detergent contained a small amount of boron along with various other chemicals necessary for laundry cleaning.
One ounce of the borax was added to the machine for each load.
The laundry volume was standardized at a full basket of 2.5 Cu Ft.
All wash cycles were run with warm water.

biofilm = experiment: standardized test procedure for objectionable odors (whiff test, Pass/Fail) in a High Efficiency laundry washing machine; settings: one ounce of composition per load, 14 days idle, TROMM WM2688WM HE washer, Tide Liquid HE detergent, 2.5 cu ft cotton laundry
Excerpt: The residue is a matrix of soap, detergent, cotton or wool fibers, and any other organic matter that was introduced by the dirty laundry. This provides a wide array of substances that can support biological growth. The exact mixture is an uncontrolled variable but it considered to be bounded by the use of one machine in one location. Experimental control also involves a standardized volume of the laundry load and the exclusive use of cotton items in the laundry washed. The detergent portion of the matrix was standardized by using only TIDE® Liquid HE Detergent.
A standardized test procedure was developed for a High Efficiency (HE) laundry washing machine. […]
The test procedure also involved a second growth period after the wash cycle where the damp laundry is allowed to sit idle in the laundry washing machine with the door closed. […] Given the above assumptions, it was reasonable to assume that the performance of the composition would be effectively quantified Personal experience with odor problem:
Experimentation with idle periods ranging from twenty four hours to three weeks verified that the intensity of the odor problem was a function of the biofilm growth in the machine during the idle period of the washing schedule. […] Therefore, it was determined that the criteria for effectiveness would be focused on the first load of the week. […]

O=C([O-])O.[Na+] [baking soda]
odor control [1]: did not work well

sodium borate pentahydrate [5 mol concentration borax]
first load odor control / first load performance (biofilm): did increase the control of first load odors, but it was still erratic
